Test results: ChEMBL document CHEMBL4706528, “The design, synthesis and anti-tumor mechanism study of new androgen receptor degrader” (Eur J Med Chem, 2020)
pIC50: −log10 of the molar value.

Columns and labels:
LNCaP [1] = test: Induction of apoptosis in human LNCaP cells assessed as necrotic cells level at 2 micromol/L incubated for 24 hrs by Annexin V/PI staining staining based flow cytometry (reference value: 0.694%); assay type: functional; details: dose 2 µmol/L, at 2 µM
MCF7 = test: Antiproliferative activity against androgen-positive human MCF7 cells assessed as cell growth inhibition measured after 72 hrs by SRB assay; assay type: functional, cell-based; details: MCF7, 72 h
LNCaP [2] = test: Induction of cell cycle arrest in human LNCaP cells assessed as accumulation at S phase at 2 micromol/L after 24 hrs by RNase A/PI-staining based flow cytometric analysis (reference value: 20.69%); assay type: functional; details: dose 2 µmol/L, at 2 µM
LNCaP [3] = test: Induction of apoptosis in human LNCaP cells assessed as late apoptotic cells level at 10 micromol/L incubated for 24 hrs by Annexin V/PI staining staining based flow cytometry (reference value: 0.940%); assay type: functional; details: dose 10 µmol/L, at 10 µM
LNCaP [4] = test: Induction of apoptosis in human LNCaP cells assessed as early apoptotic cells level at 10 micromol/L incubated for 24 hrs by Annexin V/PI staining staining based flow cytometry (reference value: 2.09%); assay type: functional; details: dose 10 µmol/L, at 10 µM

pIC50 (MCF7): 4.30
Compound: CC1(C)C(=O)N(c2ccc(C#N)c(C(F)(F)F)c2)C(=S)N1CCCCCn1cc(COCCOCCOC(=O)CC23CC4CC(CC(C4)C2)C3)nn1
Activity (LNCaP [1]): 0.774%
Activity (LNCaP [2]): 12.65%
Activity (LNCaP [3]): 6.6%
Activity (LNCaP [4]): 14.4%
